From publication PMC3914206

Experiments:
Assay type in all cases: binding
Conditions in all cases: Compound Concentration 10 µM
panel of 442 kinases [1] = biological target: T1, panel of 442 kinases (Homo sapiens, UniProt P00533, T790M)
T1 construct: purchased KINOMEscan
Excerpt: (§1) We assessed the selectivity of members of this scaffold using the KINOMEscan methodology across a near comprehensive panel of 442 kinases [[18,27]].

panel of 442 kinases [2] = biological target: T2, panel of 442 kinases (Homo sapiens, UniProt P78356)
T2 construct: purchased KINOMEscan
T2 sequence (P78356 1-416): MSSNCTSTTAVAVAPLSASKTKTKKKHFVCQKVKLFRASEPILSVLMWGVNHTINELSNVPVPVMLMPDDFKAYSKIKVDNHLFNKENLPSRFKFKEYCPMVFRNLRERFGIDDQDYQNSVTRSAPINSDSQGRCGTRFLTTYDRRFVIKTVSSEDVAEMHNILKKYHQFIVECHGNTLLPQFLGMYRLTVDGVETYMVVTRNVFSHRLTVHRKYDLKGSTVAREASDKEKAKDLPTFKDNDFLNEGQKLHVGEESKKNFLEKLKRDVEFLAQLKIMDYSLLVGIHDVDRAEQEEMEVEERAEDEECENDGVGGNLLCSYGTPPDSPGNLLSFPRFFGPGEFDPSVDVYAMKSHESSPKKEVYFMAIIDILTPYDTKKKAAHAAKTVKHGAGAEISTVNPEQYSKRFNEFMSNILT
Excerpt: as §1

panel of 442 kinases [3] = biological target: T3, panel of 442 kinases (Homo sapiens, UniProt Q13177)
T3 construct: purchased KINOMEscan
T3 sequence (Q13177 whole entry): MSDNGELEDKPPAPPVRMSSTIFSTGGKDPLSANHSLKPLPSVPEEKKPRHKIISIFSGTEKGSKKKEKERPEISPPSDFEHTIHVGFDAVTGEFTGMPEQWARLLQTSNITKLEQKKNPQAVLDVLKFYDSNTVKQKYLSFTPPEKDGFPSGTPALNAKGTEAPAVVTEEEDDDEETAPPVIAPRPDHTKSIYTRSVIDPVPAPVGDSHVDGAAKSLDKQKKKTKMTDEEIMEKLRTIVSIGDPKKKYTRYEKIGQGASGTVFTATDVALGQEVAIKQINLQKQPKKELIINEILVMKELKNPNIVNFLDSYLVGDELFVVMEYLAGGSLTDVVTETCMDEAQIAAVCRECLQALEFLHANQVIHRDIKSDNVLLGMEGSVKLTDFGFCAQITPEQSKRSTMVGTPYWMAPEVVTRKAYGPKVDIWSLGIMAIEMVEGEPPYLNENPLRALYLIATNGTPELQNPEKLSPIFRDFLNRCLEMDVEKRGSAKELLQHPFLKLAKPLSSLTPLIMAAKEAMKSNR
Excerpt: as §1

T1 sequence (P00533 25-1210 T790M): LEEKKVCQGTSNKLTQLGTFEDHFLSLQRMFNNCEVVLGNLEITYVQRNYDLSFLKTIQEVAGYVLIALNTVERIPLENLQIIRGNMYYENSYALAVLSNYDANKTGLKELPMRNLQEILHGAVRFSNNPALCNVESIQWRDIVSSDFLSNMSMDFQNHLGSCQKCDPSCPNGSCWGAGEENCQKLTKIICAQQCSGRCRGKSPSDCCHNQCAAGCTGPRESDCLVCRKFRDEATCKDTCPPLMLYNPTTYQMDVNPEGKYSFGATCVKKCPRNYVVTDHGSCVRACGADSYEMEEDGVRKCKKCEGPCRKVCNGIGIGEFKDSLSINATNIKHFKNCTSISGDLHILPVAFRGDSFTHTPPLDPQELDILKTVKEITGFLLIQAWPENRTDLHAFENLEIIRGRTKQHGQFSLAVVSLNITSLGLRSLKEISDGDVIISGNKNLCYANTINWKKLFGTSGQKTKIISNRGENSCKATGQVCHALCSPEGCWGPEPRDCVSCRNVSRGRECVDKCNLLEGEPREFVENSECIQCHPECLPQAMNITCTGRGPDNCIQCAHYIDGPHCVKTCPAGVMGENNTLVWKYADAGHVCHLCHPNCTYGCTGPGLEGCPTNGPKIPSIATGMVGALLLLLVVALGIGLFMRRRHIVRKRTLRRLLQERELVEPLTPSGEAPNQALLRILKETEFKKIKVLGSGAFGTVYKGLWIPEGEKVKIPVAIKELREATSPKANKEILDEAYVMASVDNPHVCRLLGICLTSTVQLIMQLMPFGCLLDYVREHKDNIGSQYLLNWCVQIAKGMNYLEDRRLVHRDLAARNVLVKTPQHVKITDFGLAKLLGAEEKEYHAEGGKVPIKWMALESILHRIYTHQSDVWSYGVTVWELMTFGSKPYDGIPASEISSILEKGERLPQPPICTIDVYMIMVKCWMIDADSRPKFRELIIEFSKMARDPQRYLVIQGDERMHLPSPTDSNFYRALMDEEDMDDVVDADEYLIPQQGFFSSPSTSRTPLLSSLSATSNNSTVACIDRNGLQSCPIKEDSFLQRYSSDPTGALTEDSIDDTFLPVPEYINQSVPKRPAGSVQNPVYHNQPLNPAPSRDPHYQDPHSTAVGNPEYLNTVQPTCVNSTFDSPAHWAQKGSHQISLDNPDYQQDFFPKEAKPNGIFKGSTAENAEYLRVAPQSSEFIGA

SMILES	KINOMEscan: EGFR(T790M) (panel of 442 kinases [1])	KINOMEscan: PIP5K2B (panel of 442 kinases [2])	KINOMEscan: PAK2 (panel of 442 kinases [3])
COc1cc(C(=O)N2CCC(N3CCN(C)CC3)CC2)ccc1Nc1ncc2c(n1)N(C)c1ccccc1C(=O)N2C [15 (LRRK2-IN-1)]	88	100	65
CCOc1cc(C(=O)N2CCC(N3CCN(C)CC3)CC2)ccc1Nc1ncc2c(n1)N(C1CCCC1)c1ccccc1C(=O)N2C [Compound 26]	100	100	92
COc1cc(C(=O)N2CCC(N3CCN(C)CC3)CC2)ccc1Nc1ncc2c(n1)N1CCc3cccc(c31)C(=O)N2C [Compound 24]	76	–	–
COc1cc(C(=O)N2CCC(N3CCN(C)CC3)CC2)ccc1Nc1ncc2c(n1)N(C1CCCC1)c1ccccc1C(=O)N2C [Compound 25, 11-cyclopentyl-2-((2-methoxy-4-(4-(4-methylpiperazin-1-yl)piperidine-1-carbonyl)phenyl)amino)-5-methyl-5H-benzo[e]pyrimido[5,4-b][1,4]diazepin-6(11H)-one]	89	100	90
